# Assay results as given in patent publication US8759334B2, “Compounds useful for the treatment of metabolic and inflammatory diseases” (Galapagos NV, priority 2011, dated 2014).
# Molecular target: T1, GPR43 (Homo sapiens, UniProt O15552)
# T1 construct: expressed in transfected cells
# T1 sequence (O15552 1-330): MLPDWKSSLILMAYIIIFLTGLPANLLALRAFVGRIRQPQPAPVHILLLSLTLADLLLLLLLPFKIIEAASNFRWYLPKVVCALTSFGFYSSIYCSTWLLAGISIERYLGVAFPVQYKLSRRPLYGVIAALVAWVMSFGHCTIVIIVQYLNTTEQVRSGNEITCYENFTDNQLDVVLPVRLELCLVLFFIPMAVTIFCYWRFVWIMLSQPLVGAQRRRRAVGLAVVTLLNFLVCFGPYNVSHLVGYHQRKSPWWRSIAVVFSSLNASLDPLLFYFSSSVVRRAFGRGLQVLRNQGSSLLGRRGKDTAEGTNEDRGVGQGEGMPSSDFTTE
# Assay: Calcium mobilization assay with probenecid
# Type: cell-based
# Conditions: GPR43 stably expressing cells; triggered with sodium acetate at EC80; 2.5 mM probenecid; read-out: GPR43 assay with probenicid IC50
# Experimental: The following assay can be used for determination of GPR43 activation. The assay measures intracellular calcium release induced by activation of GPR43. On day 1, GPR43 stably expressing cells were detached with mild trypsinization (Trypsin, 0.25% with EDTA 4Na, 5× diluted in PBS) centrifuged at 1000 rpm for 5 min and resuspended at 6.000 cells/25 […] medium (DMEM supplemented with 10% FBS, 10 μg/mL puromycin and 1% Pen/Strep). The cells were distributed in poly-D-lysine coated 384 well plates (black with clear bottom, 25 μL/well) and incubated overnight at 37° C. 10% CO2.
# On day 2, 25 μL of a fluorescent Ca^2+ indicator (Calcium 4 assay; Molecular Devices) supplemented with 2.5 mM probenecid was added on top of the cells and incubated for 2 h at 37° C. Subsequently, compounds at increasing concentration (10 μL/well) were added to the plate and incubated for 15 min at 37° C.
# To measure agonist activity of the compounds, compound was added to the well and the Ca^2+-flux was measured simultaneously to the […] of compound.
row,Compound,IC50 [µM]
1,"CC1(C(=O)N(CCCC(=O)O)Cc2ccc(Cl)cc2)CCN1C(=O)c1ccc2sccc2c1 (stereo not shown) [Compound 135, 4-[[1-(Benzo[b]thiophene-5-carbonyl)-2-methyl-azetidine-2-carbonyl]-(4-chloro-benzyl)-amino]-butyric acid]",0.501 to 1
2,"CC1(C(=O)N(CCCC(=O)O)Cc2ccc(Cl)cc2)CCN1C(=O)Cc1cccc2sccc12 (stereo not shown) [Compound 136, 4-[[1-(2-Benzo[b]thiophen-4-yl-acetyl)-2-methylazetidine-2-carbonyl]-(4-chloro-benzyl)-amino]-butyric acid]",0.101 to 0.5
3,"CC1(C(=O)N(CCCC(=O)N2CCOCC2)Cc2ccc(Cl)cc2)CCN1C(=O)c1ccc2sccc2c1 (stereo not shown) [Compound 138, 1-(benzo[b]thiophene-5-carbonyl)-N-(4-chlorobenzyl)-2-methyl-N-(4-morpholino-4-oxobutyl)azetidine-2-carboxamide]",> 1
4,"CC1(C(=O)N(CCCC(=O)N2CCOCC2)Cc2ccc(Cl)cc2)CCN1C(=O)c1csc2ccccc12 (stereo not shown) [Compound 139, 1-(benzo[b]thiophene-3-carbonyl)-N-(4-chlorobenzyl)-2-methyl-N-(4-morpholino-4-oxobutyl)azetidine-2-carboxamide]",> 1
5,"CC1(C(=O)N(CCCC(=O)N2CCOCC2)Cc2ccc(Cl)cc2)CCN1C(=O)Cc1coc2ccccc12 (stereo not shown) [Compound 140, 1-(2-Benzofuran-3-yl-acetyl)-2-methyl-azetidine-2-carboxylic acid (4-chloro-benzyl)-(4-morpholin-4-yl-4-oxo-butyl)-amide]",> 1
6,"CCOC(=O)CCCN(Cc1ccc(C(F)(F)F)cc1)C(=O)C1(C)CCN1C(=O)c1csc2ccccc12 (stereo not shown) [Compound 141, ethyl 4-(1-(benzo[b]thiophene-3-carbonyl)-2-methyl-N-(4-(trifluoromethyl)benzyl)azetidine-2-carboxamido)butanoate]",> 1
7,"CCOC(=O)CCCN(Cc1ccc(C(F)(F)F)cc1)C(=O)C1(C)CCN1C(=O)Cc1csc2ccccc12 (stereo not shown) [Compound 142, 4-[[1-(2-Benzo[b]thiophen-3-yl-acetyl)-2-methyl-azetidine-2-carbonyl]-(4-trifluoromethyl-benzyl)-amino]-butyric acid ethyl ester]",> 1
8,"CCOC(=O)CCCN(Cc1cccc(Cl)c1)C(=O)C1(C)CCN1C(=O)c1csc2ccccc12 (stereo not shown) [Compound 143, ethyl 4-(1-(benzo[b]thiophene-3-carbonyl)-N-(3-chlorobenzyl)-2-methylazetidine-2-carboxamido)butanoate]",> 1
9,"CC1(C(=O)N(CCCC(=O)O)Cc2ccc(C(F)(F)F)cc2)CCN1C(=O)c1csc2ccccc12 (stereo not shown) [Compound 145, 4-[[1-(Benzo[b]thiophene-3-carbonyl)-2-methyl-azetidine-2-carbonyl]-(4-trifluoromethyl-benzyl)-amino]-butyric acid]",0.101 to 0.5
10,"CCOC(=O)CCCN(Cc1cccc(Cl)c1)C(=O)C1(C)CCN1C(=O)Cc1csc2ccccc12 (stereo not shown) [Compound 147, 4-[[1-(2-Benzo[b]thiophen-3-yl-acetyl)-2-methyl-azetidine-2-carbonyl]-(3-chloro-benzyl)-amino]-butyric acid ethyl ester]",0.501 to 1
11,"CC1(C(=O)N(CCCC(=O)O)Cc2cccc(Cl)c2)CCN1C(=O)Cc1csc2ccccc12 (stereo not shown) [Compound 148, 4-[[1-(2-Benzo[b]thiophen-3-yl-acetyl)-2-methyl-azetidine-2-carbonyl]-(3-chloro-benzyl)-amino]-butyric acid]",0.501 to 1
12,"Cc1cc(C)cc(CC(=O)N2CCC2(C)C(=O)N(CCCN2CCCC2=O)Cc2ccc(Cl)cc2)c1 (stereo not shown) [Compound 149, 1-[2-(3,5-Dimethyl-phenyl)-acetyl]-2-methyl-azetidine-2-carboxylic acid (4-chloro-benzyl)-[3-(2-oxo-pyrrolidin-1-yl)-propyl]-amide]",> 1
13,"COC(=O)CCN(Cc1ccc(Cl)cc1)C(=O)C1(C)CCN1C(=O)Cc1coc2ccccc12 (stereo not shown) [Compound 150, 3-[[1-(2-Benzofuran-3-yl-acetyl)-2-methyl-azetidine-2-carbonyl]-(4-chloro-benzyl)-amino]-propionic acid methyl ester]",0.101 to 0.5
